This note sets out measurements from a melting point compilation (Tetko et al.; mined from patent text by program, amines drawn as free bases though some values may be those of a salt).

In turn, `CC1(C)CCC(C)(C)c2cc(-c3cc(-c4ccc(C(=O)O)cn4)ccc3-c3ccccc3)ccc21` displayed a melting point of 105 to 107 °C. In turn, `O=C1CCN(Cc2cc([N+](=O)[O-])ccc2O)CC1C(c1ccc(F)cc1)c1ccc(F)cc1` (stereo not drawn) registered a melting point of 169 to 170 °C. Then `CNC(=O)CC(O)(c1ccccc1)c1ccc2nc(N)n(S(=O)(=O)C(C)C)c2c1` (stereo not drawn), with 92 to 95 °C; and `CCOC(=O)C=C1c2ccccc2CC(=O)c2ccccc21`, with 56 to 62 °C. Then `O=C(O)c1c(Cl)nc(Cl)nc1Cl`, with 150 °C; and `Nc1ncc(Sc2ncccn2)s1`, with 175 to 177 °C; and `CCCCc1nc2c(c(C)c(C)n3nnnc23)n1CC(C)(C)NC(=O)c1ccccc1`, with 201 to 204 °C.

As for `Cc1cc(C)cc(CNc2c(NC(C)(C)C)c(=O)c2=O)c1`, the melting point was 246 to 248 °C. For the molecule `COc1ccc(C=CC(=O)C=Cc2ccc(OC)cc2OC)c(OC)c1`, the melting point lay within 138 to 140 °C. In turn, `CCc1ccccc1N1CCN(C(=O)Nc2nc3ccccc3nc2OC)CC1` had a melting point of 191 to 193 °C. `COC(=O)Cc1ccc(OCCNC(=O)C2Cc3ccccc3N2S(=O)(=O)c2ccc(-c3ccc(F)cc3)c(C(F)(F)F)c2)cc1` (stereo not drawn): the melting point is 60 °C. The same measure for `CCCCc1nc2cccc(CC#N)c2n1Cc1ccc(-c2ccccc2C#N)cc1`: 180 to 181 °C. Molecule `CCOCOC(=O)c1c(I)cc(I)c(NC(C)=O)c1I` gave a melting point of 174 to 178 °C. The same measure for `OCC1CN(Cc2ccccc2)CC=C1c1ccc(F)cc1` (single isomer, unassigned; (+)): 68 to 68.5 °C; for `Oc1ccc(N=Cc2ccccc2)cc1`: 182 to 183 °C; for `Nc1cc2n(n1)CCOC2`: 74 to 76 °C. The same measure for `O=C(O)C(Br)c1ccc(Cl)cc1` (stereo not drawn): 92 to 93 °C. The same measure for `CCOC(=O)Cc1ccc(C(=O)c2ccc(Cl)cc2)n1C`: 74 to 76 °C; for `CC#CCCn1ncc2c(N)c3c(nc21)CN(CCCC)C3=O`: 171 to 172 °C.

`O=C(N[C@H]1CCC(=O)N2CCC[C@@H](C(=O)O)N2C1=O)OCC1c2ccccc2-c2ccccc21` showed a melting point of 120 to 126 °C. `COc1cc(F)c(C2CNCc3ccsc32)cc1OC` (stereo not drawn) gave a melting point of 108 to 111 °C. For the molecule `O=c1c2ncn3c2n(c(=O)n1Cc1ccccc1)CC=C3c1cccc(C(F)(F)F)c1`, the melting point lay within 198 to 200 °C. The same measure for `COC(=O)c1cc(-c2cccc(C(F)(F)F)c2)c(=O)n2ccccc12`: 147 to 148 °C; for `COCOc1c(OC)cc(C(S)CS)cc1OC` (stereo not drawn): 84 to 85 °C; for `Cc1cc(-n2nc(C(F)F)cc2-c2ccc(S(C)(=O)=O)cc2)ccc1Br`: 141 to 142 °C.

For the molecule `COc1ccc(C(=O)O)c(OC(C)C)c1Br`, the melting point lay in the range of 109 to 110 °C. On to `CCCOc1cc(-c2c(C(=O)OCC)c(Cn3cnnc3)nc3cc(OC)c(OC)cc23)ccc1OC`, for which the melting point lay within 154 to 155 °C. Then `CCOC(=O)CC1(NC(C)=O)Cc2ccccc2C1`, with 72 to 73 °C. On to `C=C(c1ccc(-n2cncn2)nc1)C1(c2ccc(F)cc2F)CO1` (stereo not drawn), for which the melting point lay within 120 to 122 °C. Then `COc1ncccc1Nc1c(NC(NC(=O)c2cccc(Cl)c2)C(C)(C)C)c(=O)c1=O` (stereo not drawn), with 208 to 210 °C; and `CC(=O)Nc1cc(OC(F)F)c(OC(F)F)cc1[N+](=O)[O-]`, with 65 to 67 °C. In the case of `CCCCNC(=O)[C@@H](C[C@H](O)[C@H](CC1CCCCC1)NC(=O)OC(C)(C)C)C(C)(C)O`, the melting point was in the range of 91 to 93 °C.

Regarding `COc1cc2ncnc(Nc3cccc(O)c3)c2cc1OC`, the melting point was in the range of 256 to 257 °C. `COc1cc2c(cc1O)CCN(Cc1cccc(C#N)c1)C2` registered a melting point of 113 to 155 °C. On to `CC(=O)COc1c(-c2ccccc2)c(=O)[nH]c2cc(Cl)ccc12`, for which the melting point lay within 185 to 186 °C.

In the case of `OCCN(CCO)Cc1ccc(-c2cc3ncnc(Nc4ccc5[nH]ccc5c4)c3s2)cc1`, the melting point was in the range of 110 to 127 °C. Then `O=C1c2ccc(S(=O)(=O)c3ccccc3)cc2C(=O)c2c1c(Oc1ccccc1)c1ccccc1c2Oc1ccccc1`, with 260 to 270 °C; and `O=C1CCC(=NNc2ccccc2)c2ncccc2N1`, with 206 °C. `CCOC(=O)COc1ccccc1C(=O)Nc1ccccc1Sc1ccc(-c2nnn[nH]2)cc1`: the melting point was 155 to 157 °C. Molecule `CCNC(=O)NCCCN1C(=Nc2ccc3c(c2)OCO3)CSC1c1ccccc1OC` (stereo not drawn) yielded a melting point of 134 to 136 °C. Turning to `COCN1NC(=O)N(C)C1c1ccccc1-c1ccc(CBr)cc1` (stereo not drawn), the melting point is 137 to 138 °C. `O=C(O)CCSCSCC(C(=O)O)c1cccc(OCc2ccc3ccc(Cl)cc3n2)c1` (stereo not drawn): the melting point came out at 142 °C. For the molecule `Cc1cccc(-c2nc3ccc(OCCCN(C)C)cc3n2Cc2ccccc2C(F)(F)F)c1`, the melting point was determined as 74 °C.

`Cc1cc(N2C(=O)NC(C)(C)C2=O)ccc1[N+](=O)[O-]` returned a melting point of 177 to 178 °C. `N#CC1=C2C(=NC1=O)c1c(Sc3ccc(N)cc3)ccc3c(Sc4ccc(N)cc4)ccc2c13` came in with a melting point of 288 to 290 °C. Then `Nc1nc(Cl)cc(NCc2ccccc2F)n1`, with 130 to 133 °C; and `O=C(N[C@@H](CSC(=O)c1ccccc1)C(=O)O)c1ccccc1`, with 183 to 185 °C; and `CCOP(=S)(OCC)OC(=O)/C(=N\OC(C)=O)c1csc(N)n1`, with 128 to 130 °C. For the molecule `CCN(CC)CC1CN(c2c(F)cc3c(=O)c(C(=O)O)cn(C4CC4)c3c2F)CCO1` (stereo not drawn), the melting point is 155 to 157 °C. Molecule `Clc1ccc(C(Cn2ccnc2)C2CCCC2)c(Cl)c1` (stereo not drawn) had a melting point of 97.6 °C.

In the case of `CC(=O)CC(=O)NC1CC(C)(C)NC(C)(C)C1`, the melting point is 115 °C.

For the molecule `Cc1ccc(S(=O)(=O)Nc2ccc(N)c([N+](=O)[O-])c2)cc1`, the melting point amounted to 146 °C. The same measure for `COC(=O)c1coc2cc(O)ccc12`: 200 to 201 °C. The same measure for `CCCCCCCNC(=O)CCCCSc1nc(-c2ccccc2)c(-c2ccccc2)[nH]1`: 104 to 106 °C; for `COC(=O)c1ccc(Br)cc1OC(=S)N(C)C`: 118 °C. Turning to `CCc1ccc(NC(=O)c2ccccc2CN2C(=O)C3(COc4cc5c(cc43)CCO5)c3ccccc32)cc1` (stereo not drawn), the melting point is more than 230 °C. As to `CC1Cc2cc3c(cc2C(c2ccc([N+](=O)[O-])cc2)=NN1C(=O)CCl)OCO3` (stereo not drawn), the melting point fell in the range of 158 to 160 °C.

The molecule `CNC(=C[N+](=O)[O-])NCc1ccc2c(c1)Nc1nccnc1S2` yielded a melting point of more than 265 °C.

Consider `CN(C)C(=O)C=CC(=O)N(C)C`, for which the melting point lay within 130 to 131 °C. The same measure for `CC1=NC=CC(=O)C1OCc1ccccc1` (stereo not drawn): 162 to 163 °C; for `N=C(N)NC1=NC(=O)C(=Cc2cccc(-c3cc(F)c(O)c(C45CC6CC(CC(C6)C4)C5)c3)c2)S1`: 288 to 290 °C; for `CC(C)(C)OC(=O)NC(CI)c1ccc(F)cc1` (stereo not drawn): 138 to 139 °C.

`N#CC1c2cc(Cl)c(Cl)cc2C=CN1C(=O)c1ccccc1` (stereo not drawn) registered a melting point of 194 to 196 °C. In turn, `O=C1NC(=O)C2(N1)C(=O)N(Cc1ccc(Br)cc1F)c1c(Cl)cccc12` (stereo not drawn) had a melting point of 240 to 241 °C. The same measure for `O=C(O)c1ccc(Cn2cc(C3c4ccc(C(F)(F)F)cc4C=Cc4cc(C(F)(F)F)ccc43)c(=S)[nH]c2=O)o1`: 159 to 162 °C; for `O=Cc1ccc(-c2nc(Oc3ccccc3)cc(Oc3ccccc3)n2)cc1`: 143 to 145 °C. Consider `O=S(=O)(Nc1ccc(Cl)cc1-c1cc(-c2ccc(Cl)cc2Cl)on1)C(F)(F)F`, for which the melting point was in the range of 142 to 144 °C.

For the molecule `O=C(O)c1cc(Oc2ccc(Br)cc2)cc(C(=O)O)c1`, the melting point fell in the range of 310 to 320 °C. The molecule `O=C(O)CCCCC=Cc1cccc(Cc2ccccc2)c1` came in with a melting point of 68 °C. Turning to `O=[N+]([O-])c1cc(NC(=S)N2CCCCN2)c(F)cc1Cl`, the melting point is 118 to 120 °C. In the case of `O=C(O)Cc1cccc2c(-c3ccc(Cl)cc3)noc12`, the melting point lay within 110 to 125 °C. Then `CC(OCCCNC(=O)c1coc(-c2ccc(/C(=C\CCCCC(=O)O)c3cccnc3)cc2)n1)C1CCCCC1` (stereo not drawn), with 80 to 85 °C.

Consider `O=C(CCC(=O)N1CCC(c2ccc(Cl)cc2)CC1)c1ccc2c(c1)CCN(Cc1ccccc1)CC2`, for which the melting point lay in the range of 133 to 134 °C. `CCCC1(O)CCC2C3CCC4=CC(=O)CCC4C3CCC21CC` (stereo not drawn): the melting point fell in the range of 132 to 134 °C. Molecule `O=C(Nc1ccc(F)cc1)NN1CC=C(c2ccccc2)CC1` registered a melting point of 200 to 212 °C. The same measure for `CCOC(=O)c1nc(N)sc1C(C)=O`: 162 to 164 °C; for `CCC1(C)Cc2cc(O)c(Cl)c(Cl)c2C1=O` (stereo not drawn): 215 to 217 °C; for `CCCCCCCCNC(=O)NCc1ccc(O)c(OC)c1`: 90 to 92 °C. Then `CCCCCCNC(=O)c1cccc2c1C1(COc3cc4c(cc31)OCCO4)C(=O)N2C` (stereo not drawn), with 172 to 173 °C; and `CC(C)NC(=O)CCC(=O)c1ccccc1`, with 118 to 121 °C; and `Cc1ccc(CC2CCN(C(=O)C(=O)Nc3ccc4c(c3)CS(=O)(=O)N4)CC2)cc1`, with 186 °C. On to `COc1cc2ncnc(Nc3ccc(F)c(Cl)c3)c2cc1OCC1(C)COC1`, for which the melting point was 226 to 227 °C. Then `COCOc1ccc(C=CC(=O)c2ccc(OCc3ccccc3)cc2O)c(OCc2ccccc2)c1`, with 147 to 148 °C. As to `O=Cc1cc(I)ccc1O`, the melting point was 99 to 101 °C. Then `CC(C)NC1=NS(=O)(=O)c2cc(Cl)cc(Cl)c2N1`, with more than 230 °C; and `C(=C1\CN2CCC1CC2)/N1c2ccccc2Sc2ccccc21`, with 149 to 153 °C; and `COC(=NC(=O)Nc1ccc(OC(F)(F)F)cc1)c1ccccc1Cl`, with 148 to 149 °C.

Turning to `CCOC(=O)C1CN(S(C)(=O)=O)CCN1CC=CC(=O)Nc1cc2c(Nc3ccc(F)c(Cl)c3)ncnc2cc1OCC1CC1` (stereo not drawn), the melting point fell in the range of 170 to 173 °C.

As usually defined, the melting point is the temperature, or range, at which the solid turns liquid.
